Test results as given in patent publication US12612401B2, “Crystalline forms of an S1P receptor modulator” (Oppilan Pharma Limited, priority 2022, dated 2026).
pEC50: −log10 of the molar value.

How the values were obtained:
[1] = Thermodynamic stability relationship of anhydrates (heating; slurry competition); assay type: physicochemical; details: for XRPD result, slurry competition Form 6 and Form 1: five days
Description: As a result, slurry competition was performed for Form 6 and Form 1 in acetone and THF systems at 5° C., RT and 50° C. After stirring at desired temperature for five days, the solids were isolated and analyzed by XRPD.

[2] = Solubility evaluation of Form 1 and Form 2 in DCM/MeOH; assay type: physicochemical; details: for concentration dissolved in DCM/MeOH: room temperature or 50° C.
Description: The solubility of Form 1 and Form 2 was evaluated in the same vehicle. Form 1 or Form 2 was added into DCM/MeOH and stirred to dissolve at room temperature or 50° C. A certain amount of HPMC-AS was then added into solution at room temperature, if a clear solution was obtained. Form 2 dissolved in DCM/MeOH at a concentration of 13 mg/mL, while Form 1 dissolved in a lower concentration, 10 mg/mL.

[3] = Form 2 stability via slurry in acetone and methanol/water; assay type: physicochemical; details: solids isolated at 1 h, 3 h, 5 h, 29 h
Description: Form 2 stability was also evaluated via slurry in acetone and methanol/water at RT. Solids were isolated at 1 h, 3 h, 5 h and 29 h time points.

[4] = Stability study of Form 1 on storage (XRPD and HPLC); assay type: physicochemical; details: 80° C. for one day; 25° C./60% RH and 40° C./75% RH for one week and one month
Description: Physicochemical stability was evaluated for Form 1 via storing samples under 80° C. for one day, 25° C./60% RH and 40° C./75% RH for one week and one month.

[5] = Dynamic vapor sorption (DVS); assay type: physicochemical; details: 25° C.
Description: DVS studies were performed using a DVS Intrinsic (SMS, UK). 10 to 20 mg of compound was transferred into the DVS and the weight change recorded with respect to a varying atmospheric humidity at 25° C. using the following parameters: • Drying at 25° C. until dm/dt<±0.002%/min • Min time: 10 min, Max time: 180 min • Equilibrium: 60 min • Cycle: 0, 5, 10, 20, 30, 40, 50, 60, 70, 80, 90, 80, 70, 60, 50, 40, 30, 20, 10, 5, 0 • Characterize the sample after the DVS experiment by XRPD

[6] = Critical water activity study between Form 1 and Form 7; assay type: physicochemical; details: for XRPD result after slurry: RT, overnight
Source text: Critical water activity between anhydrous From 1 and hydrous Form 7 was investigated via slurry in MeOH/H2O system with various water activities at room temperature. After stirring overnight, the solids were isolated and analyzed by XRPD.

human S1P1 = target: T1, human S1P1 (Homo sapiens, UniProt P21453); assay: GTPγS binding assay (scintillation proximity assay); assay type: biochemical; details: S1P1 membrane from CHO cells expressing full-length human S1P1; GTPγ35S, 60 minutes
T1 construct: CHO-Ki Gαqi5 cells expression full-length human S1P1; expressed in transfected cells; host or cells: CHO-K1 Gαqi5 cells (printed 'CHO-Ki Gαqi5'), membranes
T1 sequence (P21453 whole entry): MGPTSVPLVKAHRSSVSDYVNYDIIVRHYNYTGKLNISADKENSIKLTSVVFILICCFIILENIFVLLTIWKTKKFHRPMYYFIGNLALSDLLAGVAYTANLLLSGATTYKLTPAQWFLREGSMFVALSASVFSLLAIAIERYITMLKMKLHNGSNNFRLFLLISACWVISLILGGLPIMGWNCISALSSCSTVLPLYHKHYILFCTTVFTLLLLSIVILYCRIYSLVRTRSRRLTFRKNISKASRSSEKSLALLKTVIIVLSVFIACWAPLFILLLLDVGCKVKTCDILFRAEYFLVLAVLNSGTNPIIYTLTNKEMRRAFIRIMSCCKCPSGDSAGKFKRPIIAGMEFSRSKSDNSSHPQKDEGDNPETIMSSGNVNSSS
Description: S1P1 membrane is prepared from CHO-Ki Gαqi5 cells expression full-length human S1P1. Scintillation proximity assay (SPA) is performed by incubating membranes, GTPγ^35S, and compounds at various concentrations for 60 minutes. Wheat germ agglutinin-coated SPA beads are added and incubated for 60 minutes before centrifugation and scintillation counting. EC50 data for Compound 1 found to be <1 μM.

O=C1CC[C@@H](Oc2cc(Cl)c(-c3noc(-c4cn5cc(C(F)(F)F)cc(Cl)c5n4)n3)cc2Cl)CN1 [Form 5, (R)-5-(2,5-dichloro-4-(5-(8-chloro-6-(trifluoromethyl)imidazo[1,2-a]pyridin-2-yl)-1,2,4-oxadiazol-3-yl)phenoxy)piperidin-2-one]
form change during heating ([1]; heating, exothermic signal observed): Form 6 formed at elevated temperature

O=C1CC[C@@H](Oc2cc(Cl)c(-c3noc(-c4cn5cc(C(F)(F)F)cc(Cl)c5n4)n3)cc2Cl)CN1 [Form 2, (R)-5-(2,5-dichloro-4-(5-(8-chloro-6-(trifluoromethyl)imidazo[1,2-a]pyridin-2-yl)-1,2,4-oxadiazol-3-yl)phenoxy)piperidin-2-one]
Result (dissolution), Experiment A ([2]; DCM 3.679 g, MeOH 0.752 g, Form 2 0.05 g, HPMC-AS 0.150 g): Clear at room | solubility compared with Form 1 ([2]; DCM/MeOH vehicle): better solubility than Form 1 | concentration dissolved in DCM/MeOH [2]: 13000 µg/mL | XRPD analysis after slurry ([3]; slurry in acetone at RT): Form 1 formation in both solvents within one hour | XRPD analysis after slurry ([3]; slurry in methanol/water at RT): Form 1 formation in both solvents within one hour

O=C1CC[C@@H](Oc2cc(Cl)c(-c3noc(-c4cn5cc(C(F)(F)F)cc(Cl)c5n4)n3)cc2Cl)CN1 [Form 6, (R)-5-(2,5-dichloro-4-(5-(8-chloro-6-(trifluoromethyl)imidazo[1,2-a]pyridin-2-yl)-1,2,4-oxadiazol-3-yl)phenoxy)piperidin-2-one]
thermodynamic relationship to Form 5 ([1]; according to the Burger-Ramberger Rules): monotropically related to Form 5 and is thermodynamically more stable

O=C1CC[C@@H](Oc2cc(Cl)c(-c3noc(-c4cn5cc(C(F)(F)F)cc(Cl)c5n4)n3)cc2Cl)CN1 [Form 1, (R)-5-(2,5-dichloro-4-(5-(8-chloro-6-(trifluoromethyl)imidazo[1,2-a]pyridin-2-yl)-1,2,4-oxadiazol-3-yl)phenoxy)piperidin-2-one]
change in HPLC purity after storage (chemical stability) [4]: no substantial change in HPLC purity | form change after storage (XRPD) [4]: no form change | Result (dissolution on heating), Experiment E ([2]; DCM 1.633 g, MeOH 0.334 g, Form 1 0.0165 g, AcOH 0.0022 g, HPMC-AS 0.0549 g): Dissolved at 50 °C | Result (clarity after stirring for 64 h), Experiment E ([2]; DCM 1.633 g, MeOH 0.334 g, Form 1 0.0165 g, AcOH 0.0022 g, HPMC-AS 0.0549 g, after stirring for 64 h): Clear at 25 °C after | Result (dissolution), Experiment C ([2]; DCM 1.633 g, MeOH 0.334 g, Form 1 0.02 g, AcOH 0.0022 g, HPMC-AS 0.0664 g): Hazy at 50 °C | Result (dissolution on heating), Experiment D ([2]; DCM 4.083 g, MeOH 0.834 g, Form 1 0.0414 g, HPMC-AS 0.1378 g): Dissolved at 50 °C | Result (clarity after stirring for 64 h), Experiment D ([2]; DCM 4.083 g, MeOH 0.834 g, Form 1 0.0414 g, HPMC-AS 0.1378 g, after stirring for 64 h): Clear at 25 °C after | Result (dissolution), Experiment B ([2]; DCM 4.083 g, MeOH 0.835 g, Form 1 0.05 g, HPMC-AS 0.166 g): Hazy at 50 °C | concentration dissolved in DCM/MeOH [2]: 10000 µg/mL | hygroscopicity ([5]; DVS): slightly hygroscopic | Post-DVS analysis by XRPD ([5]; after DVS cycle 0-90-0% RH): no change | moisture uptake ([5]; between 0-80% RH): 0.3% | relative stability versus Form 7 ([6]; MeOH/H2O slurry, water activities 0.0-1.0, RT): more stable under selected conditions | XRPD result, slurry competition Form 6 and Form 1 ([1]; THF, 5° C.): Form 1 | XRPD result, slurry competition Form 6 and Form 1 ([1]; THF, 50° C.): Form 1 | XRPD result, slurry competition Form 6 and Form 1 ([1]; THF, room temperature): Form 1 | XRPD result, slurry competition Form 6 and Form 1 ([1]; acetone, 5° C.): Form 1 | XRPD result, slurry competition Form 6 and Form 1 ([1]; acetone, 50° C.): Form 1 | XRPD result, slurry competition Form 6 and Form 1 ([1]; acetone, room temperature): Form 1

O=C1CC[C@@H](Oc2cc(Cl)c(-c3noc(-c4cn5cc(C(F)(F)F)cc(Cl)c5n4)n3)cc2Cl)CN1 [Form 7, (R)-5-(2,5-dichloro-4-(5-(8-chloro-6-(trifluoromethyl)imidazo[1,2-a]pyridin-2-yl)-1,2,4-oxadiazol-3-yl)phenoxy)piperidin-2-one]
XRPD result after slurry ([6]; MeOH/H2O 0:1000, Aw 1.0): Form 1 | XRPD result after slurry ([6]; MeOH/H2O 219:781, Aw 0.9): Form 1 | XRPD result after slurry ([6]; MeOH/H2O 418:582, Aw 0.8): Form 1 | XRPD result after slurry ([6]; MeOH/H2O 573:427, Aw 0.7): Form 1 | XRPD result after slurry ([6]; MeOH/H2O 687:313, Aw 0.6): Form 1 | XRPD result after slurry ([6]; MeOH/H2O 775:225, Aw 0.5): Form 1 | XRPD result after slurry ([6]; MeOH/H2O 844:156, Aw 0.4): Form 1 | XRPD result after slurry ([6]; MeOH/H2O 893:107, Aw 0.3): Form 1 | XRPD result after slurry ([6]; MeOH/H2O 937:63, Aw 0.2): Form 1 | XRPD result after slurry ([6]; MeOH/H2O 1000:0, Aw 0.0): Form 1 | form conversion in MeOH/H2O slurry ([6]; all water activities at RT, stirring overnight): converted to Form 1

O=C1CC[C@@H](Oc2cc(Cl)c(-c3noc(-c4cn5cc(C(F)(F)F)cc(Cl)c5n4)n3)cc2Cl)CN1 [Compound 1, (R)-5-(2,5-dichloro-4-(5-(8-chloro-6-(trifluoromethyl)imidazo[1,2-a]pyridin-2-yl)-1,2,4-oxadiazol-3-yl)phenoxy)piperidin-2-one]
pEC50 (human S1P1): > 6.00
